Results on two molecules are retold here after patent US20160008367A1, “Combination Comprising a Cyclin Dependent Kinase 4 or Cyclin Dependent Kinase (CDK4/6) Inhibitor for Treating Cancer” (Novartis AG, priority 2010, published 2016).

Test [1] concerns Jeko-1 mantle cell lymphoma cells. Briefly: Cell Titer-Glo cell viability assay, single agents and combinations. Type of test: cell-based. As to conditions: 72 hrs. On the procedure: The Cell Titer-Glo Luminscent Cell Viability Assay (Promega#G7572) generates a luminescent signal that is proportional to the number of metabolically active cells present in a reaction, based on the quantitation of ATP. Cell Titer-Glo Reagent was prepared by thawing a vial of Cell Titer-Glo Buffer in a 37° C. water bath. The entire bottle of buffer was then added to the bottle of lyophilized Cell Titer-Glo Substrate provided in the kit. Lyophilized substrate was allowed to dissolve; the solution was then mixed by inversion and was ready for use. Jeko-1 cells were diluted to a density of 200,000 cells/mL and cultured in T250 flask. Before treatment (time 0), 3×100 micro liter aliquots were removed and placed into a black 96 well plate with clear bottom (Costar#3904). 50 uL of CTG reagent was added to each well. The plate was placed on an Orbital Shaker, protected from light and incubated using setting 4 for 30 minutes at RT. The plate was then read using the Envision Luminometer, and results exported. The cells remaining in the T250 flasks were either left untreated or treated with single agents or in combinations. […] Results were exported and analyzed using Microsoft Excel. The percentage of viable cells as compared to control growth was calculated using following equation: […]
A is the CTG read under treatment condition
B is the CTG read for Time 0 cells
C is CTG read for 72 hr untreated cells […]
In general terms: In ATP-based viability assays light output follows the ATP content of the culture.

The test system of a further test is Jeko-1 xenograft. Briefly: Jeko-1 mantle cell lymphoma xenograft model. It is filed as in vivo. As to conditions: 35 day treatment period, single agents. The source says:
A Jeko-1 xenograft model was used to measure anti-tumor activity in a 35 day treatment period of Compound A1, Compound B1, and the combination of Compounds A1 and B1. Significant anti-tumor activity was observed.

Test [2] has as its system PANC-1 pancreatic carcinomas. Briefly: PANC-1 pancreatic carcinoma xenograft model. Type of test: in vivo, nude mice. As to conditions: PANC-1 xenograft, po x 21 days. On the procedure:
The PANC-1 pancreatic carcinomas used for implantation were maintained by serial engraftment in nude mice. […] Tumor size, in mm3, was calculated from: Tumor Volume=(w2×l)/2 where w=width and l=length, in mm, of the tumor. […] Group 1 mice received the Compound A1 and Compound B1 vehicles, and served as controls for all analyses. […] Each animal was euthanized when tumor volume reached 1200 mm3, or on the last day of the study ([…]). For each animal whose tumor reached the endpoint volume, the time to endpoint (TTE) was calculated by the following equation: TTE=(log10(endpoint volume)-b)/m Where TTE is expressed in days, endpoint volume is in mm3, b is the intercept, and m is the slope of the line obtained by linear regression of a log-transformed tumor growth data set. […] The calculated TTE is usually less than the day on which an animal is euthanized for tumor size. […] Treatment efficacy was determined from tumor growth delay (TGD), which is defined as the increase in the median TTE for a treatment group compared with the control group: TGD=T-C, expressed in days, or as a percentage of the median TTE of the control group: % TGD=[(T-C)/C]×100, where: T=median TTE for a treatment group, C=median TTE for the designated control group.

As for `COC1CC2CC[C@@H](C)C(O)(O2)C(=O)C(=O)N2CCCCC2C(=O)O[C@H](C(C)C[C@@H]2CCC(OCCO)[C@H](OC)C2)CC(=O)C(C)/C=C(\C)C(O)C(OC)C(=O)[C@H](C)CC(C)/C=C/C=C/C=C/1C` (stereo in doubt) [Compound B1, (1R,9S,12S,15R,16E,18R,19R,21R,23S,24E,26E,28E,30S,32S,35R)-1,18-dihydroxy-12-{(1R)-2-[(1S,3R,4R)-4-(2-hydroxyethoxy)-3-methoxycyclohexyl]-1-methylethyl}-19,30-dimethoxy-15,17,21,23,29,35-hexamethyl-11,36-dioxa-4-aza-tricyclo[30.3.1.04,9]hexatriaconta-16,24,26,28-tetraene-2,3,10,14,20-pentaone], in test [1] (mTOR inhibitor alone at 1, 2.5 and 5 nM (all three concentrations)), the “% cell growth compared to the vehicle control” value is on record as “approximately 30%”. The figures for the anti-tumor activity entry (with Jeko-1 xenograft; in test [2] (Compound B1 10 mg/kg qd)) were “had anti-tumor activity” and “neither Compound A1 nor Compound B1 had significant anti-tumor activity”, respectively.
For the molecule `CN(C)C(=O)c1cc2cnc(Nc3ccc(N4CCNCC4)cn3)nc2n1C1CCCC1` [Compound A1, 7-Cyclopentyl-2-(5-piperazin-1-yl-pyridin-2-ylamino)-7H-pyrrolo[2,3-d]pyrimidine-6-carboxylic acid dimethylamide], in test [1] (100 nM CDK4/6 inhibitor alone), the “% cell growth compared to the vehicle control” value was 70%. The results for the anti-tumor activity entry (with Jeko-1 xenograft; in test [2] (Compound A1 250 mg/kg qd)) were “had anti-tumor activity” and “neither Compound A1 nor Compound B1 had significant anti-tumor activity”, respectively.
